Measured values published in patent US10494378B2, “Fused ring pyrimidine compound, intermediate, and preparation method, composition and use thereof” (GUANGZHOU MAXINOVEL PHARMACEUTICALS CO., LTD., priority 2015, dated 2019).

Experiments:
Assay type in all cases: biochemical
FGFR1 kinase = target: T1, FGFR1 kinase (Homo sapiens, UniProt P11362); assay: IC50 evaluation assay of FGFR1 kinase inhibition (Caliper); conditions: 28° C.; average of two tests; read-out: IC50 (nM) inhibiting FGFR 1 kinase
T1 construct: purchased Carna 08-133
Protocol: (§1) 1. The compound was dissolved in 100% DMSO, diluted into solutions with appropriate concentration gradients with water according to experimental requirement, and added to a 96-well plate.
(§2) 2. FGFR1 kinase (Carna, Cat. No. 08-133, Lot. No. 09CBS-0989) and FGFR2 kinase (Carna, Cat. No. 08-134, Lot. No. 07CBS-2468), JAK3 kinase (Carna, Cat. No. 08-135, Lot. No. 06CBS-3177) were diluted to the optimum concentration with the following buffer solution: 50 mM HEPES, pH 7.5, 0.0015% Brij-35, 2 mM DTT. Transfer to the 96-well plate and incubate with the compound at 28° C. for a period of time.
(§3) 3. The buffer solution (100 mM HEPES, pH 7.5, 0.0015% Brij-35, 0.2% Coating Reagent and […]) was added to terminate the reaction.
(§4) 4. The conversion rate was read with Caliper Reader. The inhibition rate was calculated as the average of two tests.

YES kinase = target: T2, YES kinase (Homo sapiens, UniProt P07947); assay: IC50 evaluation assay of Src family kinase inhibition: YES; conditions: 28° C.; average of two tests; read-out: IC50 (nM) inhibiting Src family kinase YES
T2 construct: purchased Carna 08-175
Protocol: as §1
(§5) 2. c-Src kinase (Carna, Cat. No. 08-173, Lot. No. 05CBS-1367), LYNαkinase (Carna, Cat. No. 08-171, Lot. No. 06CBS-3296D), FYN kinase (Carna, Cat. No. 08-068, Lot. No. 05CBS-1032), LCK kinase (Carna, Cat. No. 08-170, Lot. No. 07CBS-2482), HCK kinase (BPS, Cat. No. 40440, Lot. No. 1001), FGR kinase (Carna, Cat. No. 08-166, Lot. No. 05CBS-2781), YES kinase (Carna, Cat. No. 08-175, Lot. No. 06CBS-3247) were diluted to the optimum concentration with the following buffer solution: 50 mM HEPES, pH 7.5, 0.0015% Brij-35, 10 mM MgCl2, 2 mM DTT. Transfer to the 96-well plate and incubate with the compound at 28° C. for a period of time.
as §3, §4

FLT3 kinase (FLT3-WT) = target: T3, FLT3 kinase (FLT3-WT) (Homo sapiens, UniProt P36888); assay: IC50 evaluation assay of FLT3 kinase inhibition (Caliper); conditions: 28° C.; average of two tests; read-out: IC50 (nM) inhibiting FLT3-WT kinase
T3 construct: purchased Carna 08-154
T3 sequence (P36888 27-993): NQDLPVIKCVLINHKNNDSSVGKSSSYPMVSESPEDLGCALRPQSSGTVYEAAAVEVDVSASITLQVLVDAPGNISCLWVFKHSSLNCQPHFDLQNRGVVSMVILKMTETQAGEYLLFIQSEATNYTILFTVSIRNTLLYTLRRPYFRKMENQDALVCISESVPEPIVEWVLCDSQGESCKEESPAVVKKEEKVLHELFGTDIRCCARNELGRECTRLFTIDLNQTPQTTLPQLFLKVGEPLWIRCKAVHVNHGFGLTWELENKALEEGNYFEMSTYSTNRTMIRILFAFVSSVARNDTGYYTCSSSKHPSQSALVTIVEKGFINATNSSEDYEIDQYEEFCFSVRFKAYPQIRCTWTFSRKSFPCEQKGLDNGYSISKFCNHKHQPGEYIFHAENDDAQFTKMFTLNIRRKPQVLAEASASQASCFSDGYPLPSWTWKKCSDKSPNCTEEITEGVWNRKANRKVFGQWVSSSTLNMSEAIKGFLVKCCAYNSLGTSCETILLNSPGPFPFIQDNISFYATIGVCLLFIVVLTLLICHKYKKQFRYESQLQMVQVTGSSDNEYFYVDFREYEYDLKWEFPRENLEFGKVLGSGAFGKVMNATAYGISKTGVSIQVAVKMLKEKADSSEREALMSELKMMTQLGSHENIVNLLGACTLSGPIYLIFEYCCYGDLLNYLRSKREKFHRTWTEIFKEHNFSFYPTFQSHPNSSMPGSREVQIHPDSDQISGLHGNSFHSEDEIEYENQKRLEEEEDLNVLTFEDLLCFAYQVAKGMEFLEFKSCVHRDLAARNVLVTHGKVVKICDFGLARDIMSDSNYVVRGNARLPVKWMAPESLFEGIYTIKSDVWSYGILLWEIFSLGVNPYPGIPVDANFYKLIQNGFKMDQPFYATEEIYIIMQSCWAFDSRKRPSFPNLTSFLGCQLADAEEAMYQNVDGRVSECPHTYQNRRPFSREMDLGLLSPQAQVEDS
Protocol: as §1
2. FLT3 kinase (Carna, Cat. No. 08-154, Lot. No. 07CBS-2350), FLT3-ITD kinase (Invitrogen, Cat. No. PV6191, Lot. No. 1753453) and FLT3-D835Y kinase (Invitrogen, Cat. No. PR7450A, Lot. No. 1629729C) were diluted to the optimum concentration with the following buffer solution: 50 mM HEPES, pH 7.5, 0.0015% Brij-35, 10 mM MgCl2, 2 mM DTT. Transfer to the 96-well plate and incubate with the compound at 28° C. for a period of time.
as §3, §4

LYNα kinase = target: T4, LYNα kinase (Homo sapiens, UniProt P07948); assay: IC50 evaluation assay of Src family kinase inhibition: LYNα; conditions: 28° C.; average of two tests; read-out: IC50 (nM) inhibiting Src family kinase LYNα
T4 construct: purchased Carna 08-171
Protocol: as §1, §5, §3, §4

FGFR2 kinase = target: T5, FGFR2 kinase (Homo sapiens, UniProt P21802); assay: IC50 evaluation assay of FGFR2 kinase inhibition (Caliper); conditions: 28° C.; average of two tests; read-out: IC50 (nM) inhibiting FGFR 2 kinase
T5 construct: purchased Carna 08-134
Protocol: as §1, §2, §3, §4

FYN kinase = target: T6, FYN kinase (Homo sapiens, UniProt P06241); assay: IC50 evaluation assay of Src family kinase inhibition: FYN; conditions: 28° C.; average of two tests; read-out: IC50 (nM) inhibiting Src family kinase FYN
T6 construct: purchased Carna 08-068
Protocol: as §1, §5, §3, §4

FGR kinase = target: T7, FGR kinase (Homo sapiens, UniProt P09769); assay: IC50 evaluation assay of Src family kinase inhibition: FGR; conditions: 28° C.; average of two tests; read-out: IC50 (nM) inhibiting Src family kinase FGR
T7 construct: purchased Carna 08-166
Protocol: as §1, §5, §3, §4

T5 sequence (P21802 22-821): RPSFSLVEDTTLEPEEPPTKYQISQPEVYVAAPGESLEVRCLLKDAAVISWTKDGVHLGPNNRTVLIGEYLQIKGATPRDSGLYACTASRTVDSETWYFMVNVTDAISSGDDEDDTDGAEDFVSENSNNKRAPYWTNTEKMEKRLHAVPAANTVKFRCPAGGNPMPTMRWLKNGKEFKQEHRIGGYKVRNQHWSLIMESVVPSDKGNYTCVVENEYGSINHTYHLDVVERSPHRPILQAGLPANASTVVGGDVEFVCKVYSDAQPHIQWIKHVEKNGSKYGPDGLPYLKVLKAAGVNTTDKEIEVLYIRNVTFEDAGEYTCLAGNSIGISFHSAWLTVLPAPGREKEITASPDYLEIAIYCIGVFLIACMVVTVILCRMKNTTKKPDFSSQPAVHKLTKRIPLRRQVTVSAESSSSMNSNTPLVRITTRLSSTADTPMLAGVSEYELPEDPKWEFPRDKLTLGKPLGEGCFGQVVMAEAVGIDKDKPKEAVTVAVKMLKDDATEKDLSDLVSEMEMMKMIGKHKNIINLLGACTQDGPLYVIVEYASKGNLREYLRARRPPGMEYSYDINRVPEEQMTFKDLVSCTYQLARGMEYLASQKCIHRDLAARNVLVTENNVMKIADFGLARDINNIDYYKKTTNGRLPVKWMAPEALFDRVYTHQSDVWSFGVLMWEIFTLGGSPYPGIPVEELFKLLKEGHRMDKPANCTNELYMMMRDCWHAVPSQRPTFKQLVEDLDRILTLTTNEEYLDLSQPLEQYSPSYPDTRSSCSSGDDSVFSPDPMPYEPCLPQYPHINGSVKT
T2 sequence (P07947 whole entry): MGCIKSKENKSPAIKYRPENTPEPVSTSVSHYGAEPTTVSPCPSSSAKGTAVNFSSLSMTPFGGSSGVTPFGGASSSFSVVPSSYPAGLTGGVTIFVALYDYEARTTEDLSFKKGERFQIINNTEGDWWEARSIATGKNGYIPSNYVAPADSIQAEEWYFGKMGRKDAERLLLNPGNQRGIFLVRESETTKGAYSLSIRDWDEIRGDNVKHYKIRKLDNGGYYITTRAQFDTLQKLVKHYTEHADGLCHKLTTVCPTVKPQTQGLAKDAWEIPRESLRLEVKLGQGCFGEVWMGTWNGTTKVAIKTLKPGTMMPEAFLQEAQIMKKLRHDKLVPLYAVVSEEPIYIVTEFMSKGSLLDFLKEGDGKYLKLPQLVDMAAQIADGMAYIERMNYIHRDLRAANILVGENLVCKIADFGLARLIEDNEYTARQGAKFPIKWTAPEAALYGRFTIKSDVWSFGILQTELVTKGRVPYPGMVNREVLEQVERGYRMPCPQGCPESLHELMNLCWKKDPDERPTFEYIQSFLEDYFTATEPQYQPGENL
T7 sequence (P09769 whole entry): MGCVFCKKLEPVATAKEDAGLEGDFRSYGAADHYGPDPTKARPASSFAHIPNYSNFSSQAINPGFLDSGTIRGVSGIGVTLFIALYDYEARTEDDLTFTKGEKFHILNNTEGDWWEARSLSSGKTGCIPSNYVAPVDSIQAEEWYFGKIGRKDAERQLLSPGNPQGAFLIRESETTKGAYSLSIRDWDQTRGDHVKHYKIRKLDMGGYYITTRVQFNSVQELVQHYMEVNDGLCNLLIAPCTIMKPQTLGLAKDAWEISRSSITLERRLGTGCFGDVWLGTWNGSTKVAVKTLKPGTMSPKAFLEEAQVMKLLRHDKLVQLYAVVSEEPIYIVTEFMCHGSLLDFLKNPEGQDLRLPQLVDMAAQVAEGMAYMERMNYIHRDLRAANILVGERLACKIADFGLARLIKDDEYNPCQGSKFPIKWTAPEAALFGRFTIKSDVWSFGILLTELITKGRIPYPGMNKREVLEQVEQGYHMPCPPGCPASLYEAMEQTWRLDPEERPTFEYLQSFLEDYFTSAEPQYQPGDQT
T4 sequence (P07948 whole entry): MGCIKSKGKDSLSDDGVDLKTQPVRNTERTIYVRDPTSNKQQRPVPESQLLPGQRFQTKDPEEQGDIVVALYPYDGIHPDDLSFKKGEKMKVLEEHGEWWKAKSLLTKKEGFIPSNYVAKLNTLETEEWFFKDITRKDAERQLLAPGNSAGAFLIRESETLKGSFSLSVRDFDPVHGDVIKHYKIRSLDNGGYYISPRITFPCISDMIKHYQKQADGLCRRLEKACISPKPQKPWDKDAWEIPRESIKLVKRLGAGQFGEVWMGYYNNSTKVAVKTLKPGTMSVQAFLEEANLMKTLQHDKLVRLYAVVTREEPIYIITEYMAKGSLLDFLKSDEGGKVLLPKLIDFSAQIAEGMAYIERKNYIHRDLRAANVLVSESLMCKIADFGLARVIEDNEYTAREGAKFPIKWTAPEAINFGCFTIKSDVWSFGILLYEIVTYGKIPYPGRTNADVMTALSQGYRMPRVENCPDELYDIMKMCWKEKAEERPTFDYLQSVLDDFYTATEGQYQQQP
T1 sequence (P11362 22-822): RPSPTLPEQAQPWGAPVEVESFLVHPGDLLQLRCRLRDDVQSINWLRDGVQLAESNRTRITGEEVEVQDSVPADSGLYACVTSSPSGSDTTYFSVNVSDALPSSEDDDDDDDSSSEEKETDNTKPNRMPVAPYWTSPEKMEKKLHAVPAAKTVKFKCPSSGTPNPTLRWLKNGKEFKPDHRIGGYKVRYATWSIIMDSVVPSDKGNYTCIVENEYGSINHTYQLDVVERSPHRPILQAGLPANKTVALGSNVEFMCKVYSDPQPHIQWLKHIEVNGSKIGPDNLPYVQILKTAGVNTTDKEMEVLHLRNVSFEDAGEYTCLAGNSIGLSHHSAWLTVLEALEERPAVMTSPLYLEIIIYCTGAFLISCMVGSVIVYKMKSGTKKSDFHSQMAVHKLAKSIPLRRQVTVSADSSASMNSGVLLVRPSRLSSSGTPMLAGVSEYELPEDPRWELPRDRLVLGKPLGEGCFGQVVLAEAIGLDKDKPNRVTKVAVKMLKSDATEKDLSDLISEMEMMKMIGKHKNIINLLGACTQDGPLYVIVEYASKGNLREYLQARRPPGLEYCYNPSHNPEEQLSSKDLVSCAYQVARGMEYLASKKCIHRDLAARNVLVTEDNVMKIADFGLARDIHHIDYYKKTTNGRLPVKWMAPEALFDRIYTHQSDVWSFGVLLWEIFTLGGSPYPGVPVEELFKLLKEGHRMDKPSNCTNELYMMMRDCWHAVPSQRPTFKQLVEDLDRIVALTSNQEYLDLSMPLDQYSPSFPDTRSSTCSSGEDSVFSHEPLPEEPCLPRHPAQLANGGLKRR
T6 sequence (P06241 whole entry): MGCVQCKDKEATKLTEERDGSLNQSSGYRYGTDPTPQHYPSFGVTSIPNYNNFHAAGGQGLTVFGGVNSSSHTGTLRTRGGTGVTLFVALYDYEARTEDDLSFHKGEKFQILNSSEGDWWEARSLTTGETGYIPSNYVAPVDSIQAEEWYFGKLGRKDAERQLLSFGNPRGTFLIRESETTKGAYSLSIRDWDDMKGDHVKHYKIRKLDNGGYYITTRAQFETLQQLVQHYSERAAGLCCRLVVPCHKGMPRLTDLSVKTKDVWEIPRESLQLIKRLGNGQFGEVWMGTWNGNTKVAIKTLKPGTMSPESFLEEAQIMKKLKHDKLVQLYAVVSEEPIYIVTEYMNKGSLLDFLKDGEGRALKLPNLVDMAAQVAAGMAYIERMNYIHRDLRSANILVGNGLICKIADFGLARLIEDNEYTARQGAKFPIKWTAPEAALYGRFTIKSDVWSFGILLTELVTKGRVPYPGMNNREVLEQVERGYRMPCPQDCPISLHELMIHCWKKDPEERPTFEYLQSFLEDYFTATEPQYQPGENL

IC50 (FGFR1 kinase) [nM]	IC50 (YES kinase) [nM]	IC50 (FLT3 kinase (FLT3-WT)) [nM]	IC50 (LYNα kinase) [nM]	IC50 (FGFR2 kinase) [nM]	IC50 (FYN kinase) [nM]	IC50 (FGR kinase) [nM]	SMILES
3.8	6.8	< 5	< 5	8.9	< 5	11	COc1cc(F)ccc1-c1c(C)sc2cnc(Nc3cnn(C4CCN(CCO)CC4)c3)nc12 [Compound 34, 2-[4-(4-{[7-(4-fluoro-2-methoxyphenyl)-6-methylthieno[3,2-d]pyrimidinyl-2-yl]amino}-1H-pyrazol-1-yl)-piperidinyl-1-yl]-1-ethanol]
5.1	5.8	0.28	1.3	10	3.7	14	COc1cc(F)ccc1-c1c(C)sc2cnc(Nc3cnn(C4CCNCC4)c3)nc12 [Compound 31, N-[7-(4-fluoro-2-methoxyphenyl)-6-methylthieno[3,2-d]pyrimidinyl-2-yl]-1-(piperidinyl-4-yl)-1H-pyrazol-4-amine]
